In patent US7531550B2, “Pseudobase benzo[c]phenanthridines with improved efficacy, stability, and safety” (Yale University, priority 2006, dated 2009):
One block for each compound: values may come before it.

Legend:
Format in all cases: physicochemical
[1] = Conversion of chelerythrine pseudobases to parent chelerythrine in simulated gastric fluid (SGF); details: for conversion to chelerythrine chloride (1H NMR analysis): 1 mg in 5 mL, 37° C.
Protocol: Simulated Gastric Fluid (SGF): Sodium chloride (2 gm), 750 mL distilled water, and 7.0 mL of concentrated hydrochloric acid are added into a 1000 ml volumetric flask. The flask is swirled to mix and the volume brought to 1000 mL with distilled water. The pH should be approx. 1.2.
(§1) General conversion procedure: The pseudobases are placed in SGF or SIF at about 0.2 mg/mL concentration and placed in 37° C. bath with gentle stirring. For those pseudobases which have low aqueous solubility, up to 20% co-solvent such as methanol is added to facilitate dissolution. The progress of the conversion is followed by visual observation (color change) and ^1H NMR analysis.
(§2) 6-tert-Butoxy-5,6-dihydrochelerythrine (1 mg) is placed in 5 mL of simulated gastric fluid in a glass vial. The vial is gently placed in 37° C. bath with gentle stirring. The solid pseudobase gradually dissolves to give a yellow solution which is the characteristic color of the parent chelerythrine chloride.
as §2, with “6-Diethyl-(5,6-dihydrochelerythrine)-malonate” for “6-tert-Butoxy-5,6-dihydrochelerythrine”, “vial containing 10% methanol.” for “vial.”

[2] = Solubility of the chelerythrine ether dimer
Excerpt: (§3) The quaternary nitrogen imparts inherent chemical reactivity into these alkaloids. Nucleophiles can readily add to the adjacent carbon to create a neutral pseudobase. Water forms an unstable adduct with chelerythrine that can be seen in NMR studies. Additionally, 6-methoxy-5,6-dihydrochelerytherine and 6-ethoxy-5,6-dihydrochelerytherine (Artarine) have been reported as byproducts formed during the isolation of chelerythrine from plants utilizing methanol and ethanol extractions. The ability of this class of compounds to form pseudobases which can convert back to the quartenary […] is dependent on the solubility of the resulting pseudobase in biological media, the basicity of the leaving group adjacent to the position to become quartenary and the aromatic substitution pattern and nature of substituting agents (electron donating or withdrawing). Sanguinarine forms the hydroxyl psuedobase in pH 7.4 water to a higher extent than Chelerythrine. Under basic aqueous conditions, the hydroxypsuedobase of Cheleryturine will dimerize forming an ether bridge between two Chelerythrine molecules attached to the carbon adjacent to the ring nitrogen.

[3] = Conversion to chelerythrine in 0.1N HCL with 30% methanol; details: then 30% methanol added
Excerpt: as §3

[4] = Conversion of chelerythrine pseudobases to parent chelerythrine in simulated intestinal fluid (SIF); details: 1 mg in 5 mL, 37° C., after 4 h
Protocol: Simulated Intestinal Fluid (SIF): Monobasic potassium phosphate (6.8 gm) and sodium hydroxide (0.616 gm) are added into 250 ml of distilled water in a 1000 ml volumetric flask and swirled until dissolved. 700 ml distilled water is added and the pH checked. The pH is adjusted to pH 6.8+/−0.1 by adding either 0.2N sodium hydroxide or 0.2N hydrochloric acid and the volume is brought to 1000 ml.
as §1
as §2, with “N-(isopropyl)-5,6-dihydrochelerythrine-6-amine” for “6-tert-Butoxy-5,6-dihydrochelerythrine”, “intestinal” for “gastric”, “dissolved” for “dissolves”

- conversion to Chelerythrine in simulated gastric fluids ([1]; simulated gastric fluids): does not convert readily
- solubility [2]: quite insoluble
- conversion to Chelerythrine [3]: occurs rapidly
SMILES: COc1ccc2c(c1OC)C(OC1c3c(ccc(OC)c3OC)-c3ccc4cc5c(cc4c3N1C)OCO5)N(C)c1c-2ccc2cc3c(cc12)OCO3 (stereo not drawn) [compound 34, 6-(5,6-dihydrochelerytherin-6-yloxy)-5,6-dihydrochelerytherine]

SMILES: COc1ccc2c(c1OC)C(OC(C)(C)C)N(C)c1c-2ccc2cc3c(cc12)OCO3 (stereo not drawn) [compound 37, 6-tert-butoxy-5,6-dihydrochelerytherine]
- conversion to chelerythrine chloride (1H NMR analysis) ([1]; simulated gastric fluid, after 2 h): complete conversion

- conversion to chelerythrine chloride (1H NMR analysis) [4]: complete conversion
SMILES: COc1ccc2c(c1OC)C(NC(C)C)N(C)c1c-2ccc2cc3c(cc12)OCO3 (stereo not drawn) [compound 43, N-(isopropyl)-5,6-dihydrochelerythrine-6-amine]

- conversion to chelerythrine chloride (1H NMR analysis) ([1]; simulated gastric fluid containing 10% methanol, after 16 h): complete conversion
SMILES: CCOC(=O)C(C(=O)OCC)C1c2c(ccc(OC)c2OC)-c2ccc3cc4c(cc3c2N1C)OCO4 (stereo not drawn) [compound 50, 6-diethyl-(5,6-dihydrochelerythrine)-malonate]
